We go through 32 compounds from the METLIN SMRT retention time set (Domingo-Almenara et al. 2019).

This data set can be described thus: gradient 5% acetonitrile 3 min, to 50% in 2 min, to 85% in 15 min, held 3 min, 100 µL/min. The note with it: column: Zorbax Extend-C18 2.1 x 50 mm; eluents: water / acetonitrile, 0.1% formic acid. Summed up: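 Retention time was recorded from adduct peaks, which were picked computationally and each inspected manually. Pure standards ran in mixtures of ~100 molecules on HPLC coupled to a quadrupole time-of-flight mass spectrometer, in positive and negative ionization mode, through a Zorbax Extend-C18 column (2.1 × 50 mm, 1.8 μm) at 100 μL/min. Eluents were water and acetonitrile, each with 0.1% formic acid.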
Turning to `CCC1(C(=O)NCc2ccc(Cl)cc2)CCCCC(=O)N1` (configuration not stated), the RP-LC retention time turned out to be 738 s.

`O=C(NCc1ccc(N2CCOCC2)cc1)c1csc(-c2ccc(N3CCCC3)nc2)n1` had an RP-LC retention time of 635 s. With `COc1ccc(/C=C/c2nc(-c3ccc4oc(C)nc4c3)no2)cc1` the figure was 1150 s. Consider `COc1ccc(CNc2nc3ccncc3n(C(C)C)c2=O)c(OC)c1`, for which the RP-LC retention time turned out to be 681 s.

With `CCCCN(C)C(=O)Cn1c(CNC(=O)c2ccco2)nc2ccccc21`, the RP-LC retention time was 629 s. `Cc1ccc(NC(=O)CC(C)S(=O)(=O)c2ccc3c(c2)CCN3C(=O)C2CC2)cc1N(C)C` (configuration not stated) registered an RP-LC retention time of 983 s. With `CC1CCN(c2nccnc2Oc2ccc(C(=O)Nc3ccc4c(c3)OCCO4)cc2)CC1`, the RP-LC retention time stood at 1080 s. `CSc1ccc(-c2nc3c(C)cccn3c2NC2CCCCC2)cc1`: the RP-LC retention time is 868 s. The compound `CN1C(=O)COc2ccc(-c3csc(NC(=O)CCC4CCCCC4)n3)cc21` gave an RP-LC retention time of 1140 s. Compound `CN(c1ccccc1)c1nc(=O)n(CC(=O)Nc2ccc3c(c2)OCO3)c2ccccc12` registered an RP-LC retention time of 800 s. Compound `COc1cc([C@@H]2c3cc4c(cc3[C@H](O)[C@@H](CO)[C@@H]2C(=O)Nc2ccc(C)cc2)OCO4)cc(OC)c1OC` had an RP-LC retention time of 763 s. With `COCc1nncn1C1CCN(S(=O)(=O)c2ccc(F)c(Cl)c2)CC1` the figure was 739 s. As to `O=C(O)c1ccccc1-n1c2ccccc2c2ccccc21`, the RP-LC retention time turned out to be 1050 s.

For the compound `CCC(=O)Nc1ccc(C2(C(=O)N3CCOCC3)CCCCC2)cc1`, the RP-LC retention time was determined as 721 s. For `Cc1ccc(NC(=O)c2cc3c(s2)CN(C2CCCC2)C3)c(C)c1` the value was 663 s; for `CN(C)c1cccc(C(=O)N2CCN(C(=O)C3CC3c3ccc4c(c3)OCO4)CC2)c1` (configuration not stated), 715 s. The compound `O=C(Cc1cccc(F)c1)NC(c1ccccc1)c1nnc(N2CCCC2)o1` (configuration not stated) came in with an RP-LC retention time of 771 s. `O=C(Cn1c(=O)cc(-c2nc(C3CC3)no2)c2ccccc21)Nc1ccc2c(c1)OCCO2` yielded an RP-LC retention time of 906 s. For `CCCN(CCC)C(=O)C1CCCN(c2ccc(-c3ccc(C)cc3)nn2)C1` (configuration not stated) the value was 826 s. Take `O=C(CCc1c(-c2ccc(Cl)cc2)nc2ccccn12)NCc1ccco1`: the RP-LC retention time is 655 s. Consider `CCc1ccc(NC(=O)C2CCc3nc(N(CC)CC)ncc3C2)cc1` (configuration not stated), for which the RP-LC retention time stood at 799 s. `O=C(NCc1ccco1)C1CCN(c2ccc(=O)n(-c3cccc(Cl)c3)n2)CC1`: the RP-LC retention time was determined as 785 s. With `O=C(O)c1cn(-c2ccc(F)c(Cl)c2)nn1`, the RP-LC retention time is 727 s. Regarding `Cc1ccc(-n2ccc(=O)c(-c3nc(-c4cccc(Br)c4)no3)n2)cc1`, the RP-LC retention time stood at 1030 s.

The compound `CCCCN1CCc2nc(Nc3cc(OC)ccc3OC)ncc2C1` registered an RP-LC retention time of 655 s. Compound `O=C(Nc1ccc2c(c1)OCCO2)N1CCC2(CC1)CC(N1CCCC1)CCO2` (configuration not stated) came in with an RP-LC retention time of 586 s. For the compound `COc1ccccc1N1CCN(Cc2nc(-c3ccc(N4CCCC(C)C4)nc3)no2)CC1` (configuration not stated), the RP-LC retention time came to 848 s. `O=C(CSc1nnc(-c2ccc3c(c2)OCO3)o1)N1CCc2ccccc2C1` gave an RP-LC retention time of 990 s.

Consider `Cc1oc(C2CCN(S(=O)(=O)c3ccc(C(F)(F)F)cc3)CC2)nc1C(=O)N(C)C`, for which the RP-LC retention time was found to be 900 s. Compound `CC1=C(c2ccc(Cl)cc2)S(=O)(=O)N=C1N1CCC(C(=O)NC(C)C)CC1` returned an RP-LC retention time of 779 s.

In turn, `Cc1ccc(CNC(=O)CN2CCN(Cc3cccc(Cl)c3)C2=O)o1` came in with an RP-LC retention time of 810 s. With `Cc1cc(-n2c(C)nc3ccccc3c2=O)ccc1NC(=O)CCC1CCCC1` the figure was 892 s.
